# Data from PubChem BioAssay AID2060601 (Molecular Pharmacology Branch, DTP, NCI, 2025).
# Tested on: 874868-142-R-J2-PDC complex spheroids, growth % test/control
# Test: Anticancer human tumor 874868-142-R-J2-PDC patient-derived head and neck squamous carcinoma cell line growth inhibition [CLK]
# Details: for IC50: curve of first compound; for viability, T/C: stronger effect = lower value
# Method in brief: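 Patient-derived tumor cells grown as complex spheroids with HUVEC endothelial cells and mesenchymal stem cells, treated with drug combinations. Concentrations descend in half-log steps from near clinical Cmax, or from 10 microM if Cmax unknown.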
# [1] = second compound 0.0316 µM, first compound 0.0316 µM
# [2] = second compound 0.0316 µM, first compound 0.1 µM
# [3] = second compound 0.1 µM, first compound 0.0316 µM
# [4] = second compound 0.1 µM, first compound 0.1 µM
# [5] = second compound 0.316 µM, first compound 0.0316 µM
# [6] = second compound 0.316 µM, first compound 0.1 µM
# [7] = second compound 1 µM, first compound 0.0316 µM
# [8] = second compound 1 µM, first compound 0.1 µM
# [9] = second compound 3.16 µM, first compound 0.0316 µM
# [10] = second compound 3.16 µM, first compound 0.1 µM
# [11] = second compound 10 µM, first compound 0.0316 µM
# [12] = second compound 10 µM, first compound 0.1 µM
# [13] = second compound 0.0316 µM, first compound 0.316 µM
# [14] = second compound 0.0316 µM, first compound 1 µM
# [15] = second compound 0.0316 µM, first compound 3.16 µM
# [16] = second compound 0.0316 µM, first compound 10 µM
# [17] = second compound 0.1 µM, first compound 0.316 µM
# [18] = second compound 0.1 µM, first compound 1 µM
# [19] = second compound 0.1 µM, first compound 3.16 µM
# [20] = second compound 0.1 µM, first compound 10 µM
# [21] = second compound 0.316 µM, first compound 0.316 µM
# [22] = second compound 0.316 µM, first compound 1 µM
# [23] = second compound 0.316 µM, first compound 3.16 µM
# [24] = second compound 0.316 µM, first compound 10 µM
# [25] = second compound 1 µM, first compound 0.316 µM
# [26] = second compound 1 µM, first compound 1 µM
# [27] = second compound 1 µM, first compound 3.16 µM
# [28] = second compound 1 µM, first compound 10 µM
# [29] = second compound 3.16 µM, first compound 0.316 µM
# [30] = second compound 3.16 µM, first compound 1 µM
# [31] = second compound 3.16 µM, first compound 3.16 µM
# [32] = second compound 3.16 µM, first compound 10 µM
# [33] = second compound 10 µM, first compound 0.316 µM
# [34] = second compound 10 µM, first compound 1 µM
# [35] = second compound 10 µM, first compound 3.16 µM
# [36] = second compound 10 µM, first compound 10 µM
# 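Further: spheroids exposed to the compounds for 7 days.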
# 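Wherever viability, T/C is given: 100% = DMSO vehicle control viability.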
compound,measurement,setting,value
CC(C)CC(NC(=O)C(Cc1ccccc1)NC(=O)c1cnccn1)B(O)O (stereo not drawn) + CN1CCN(c2cc(C(=O)Nc3cc4cc(-c5cnn(C)c5)ccc4cn3)ccn2)CC1,IC50,second compound 0.0316 µM,4.88 nM
same,IC50,second compound 0.1 µM,4.5 nM
same,IC50,second compound 0.316 µM,< 0.949 nM
same,IC50,second compound 1 µM,< 0.949 nM
same,IC50,second compound 3.16 µM,< 0.949 nM
same,IC50,second compound 10 µM,< 0.949 nM
same,"viability, T/C","second compound 0.0316 µM, first compound 0.000949 µM",79.4%
same,"viability, T/C","second compound 0.0316 µM, first compound 0.003 µM",91.5%
same,"viability, T/C","second compound 0.0316 µM, first compound 0.00949 µM",1.41%
same,"viability, T/C","second compound 0.0316 µM, first compound 0.03 µM",0.55%
same,"viability, T/C","second compound 0.0316 µM, first compound 0.0949 µM",0.23%
same,"viability, T/C","second compound 0.0316 µM, first compound 0.3 µM",0.27%
same,"viability, T/C","second compound 0.1 µM, first compound 0.000949 µM",68.9%
same,"viability, T/C","second compound 0.1 µM, first compound 0.003 µM",83.1%
same,"viability, T/C","second compound 0.1 µM, first compound 0.00949 µM",2.27%
same,"viability, T/C","second compound 0.1 µM, first compound 0.03 µM",0.42%
same,"viability, T/C","second compound 0.1 µM, first compound 0.0949 µM",0.14%
same,"viability, T/C","second compound 0.1 µM, first compound 0.3 µM",0.34%
same,"viability, T/C","second compound 0.316 µM, first compound 0.000949 µM",20.8%
same,"viability, T/C","second compound 0.316 µM, first compound 0.003 µM",14.3%
same,"viability, T/C","second compound 0.316 µM, first compound 0.00949 µM",0.46%
same,"viability, T/C","second compound 0.316 µM, first compound 0.03 µM",0.14%
same,"viability, T/C","second compound 0.316 µM, first compound 0.0949 µM",0.13%
same,"viability, T/C","second compound 0.316 µM, first compound 0.3 µM",0.15%
same,"viability, T/C","second compound 1 µM, first compound 0.000949 µM",0.31%
same,"viability, T/C","second compound 1 µM, first compound 0.003 µM",0.22%
same,"viability, T/C","second compound 1 µM, first compound 0.00949 µM",1.17%
same,"viability, T/C","second compound 1 µM, first compound 0.03 µM",0.2%
same,"viability, T/C","second compound 1 µM, first compound 0.0949 µM",0.1%
same,"viability, T/C","second compound 1 µM, first compound 0.3 µM",0.14%
same,"viability, T/C","second compound 3.16 µM, first compound 0.000949 µM",0.33%
same,"viability, T/C","second compound 3.16 µM, first compound 0.003 µM",0.27%
same,"viability, T/C","second compound 3.16 µM, first compound 0.00949 µM",0.28%
same,"viability, T/C","second compound 3.16 µM, first compound 0.03 µM",0.14%
same,"viability, T/C","second compound 3.16 µM, first compound 0.0949 µM",0.4%
same,"viability, T/C","second compound 3.16 µM, first compound 0.3 µM",0.25%
same,"viability, T/C","second compound 10 µM, first compound 0.000949 µM",0.09%
same,"viability, T/C","second compound 10 µM, first compound 0.003 µM",3.32%
same,"viability, T/C","second compound 10 µM, first compound 0.00949 µM",3.67%
same,"viability, T/C","second compound 10 µM, first compound 0.03 µM",0.13%
same,"viability, T/C","second compound 10 µM, first compound 0.0949 µM",0.18%
same,"viability, T/C","second compound 10 µM, first compound 0.3 µM",0.22%
Cn1ncnc1[C@H]1c2n[nH]c(=O)c3cc(F)cc(c23)N[C@@H]1c1ccc(F)cc1 + CN1CCN(c2cc(C(=O)Nc3cc4cc(-c5cnn(C)c5)ccc4cn3)ccn2)CC1,IC50,second compound 0.0316 µM,> 100 nM
same,IC50,second compound 0.1 µM,91.4 nM
same,IC50,second compound 0.316 µM,< 0.316 nM
same,IC50,second compound 1 µM,< 0.316 nM
same,IC50,second compound 3.16 µM,< 0.316 nM
same,IC50,second compound 10 µM,< 0.316 nM
same,"viability, T/C","second compound 0.0316 µM, first compound 0.000316 µM",99.4%
same,"viability, T/C","second compound 0.0316 µM, first compound 0.001 µM",83.8%
same,"viability, T/C","second compound 0.0316 µM, first compound 0.00316 µM",80%
same,"viability, T/C","second compound 0.0316 µM, first compound 0.01 µM",89.2%
same,"viability, T/C",[1],62.2%
same,"viability, T/C",[2],68.2%
same,"viability, T/C","second compound 0.1 µM, first compound 0.000316 µM",83.9%
same,"viability, T/C","second compound 0.1 µM, first compound 0.001 µM",70.3%
same,"viability, T/C","second compound 0.1 µM, first compound 0.00316 µM",69.8%
same,"viability, T/C","second compound 0.1 µM, first compound 0.01 µM",66.6%
same,"viability, T/C",[3],43.8%
same,"viability, T/C",[4],53.8%
same,"viability, T/C","second compound 0.316 µM, first compound 0.000316 µM",17.1%
same,"viability, T/C","second compound 0.316 µM, first compound 0.001 µM",17.7%
same,"viability, T/C","second compound 0.316 µM, first compound 0.00316 µM",16.2%
same,"viability, T/C","second compound 0.316 µM, first compound 0.01 µM",11.9%
same,"viability, T/C",[5],18.8%
same,"viability, T/C",[6],15.2%
same,"viability, T/C","second compound 1 µM, first compound 0.000316 µM",0.34%
same,"viability, T/C","second compound 1 µM, first compound 0.001 µM",0.36%
same,"viability, T/C","second compound 1 µM, first compound 0.00316 µM",0.3%
same,"viability, T/C","second compound 1 µM, first compound 0.01 µM",0.19%
same,"viability, T/C",[7],0.26%
same,"viability, T/C",[8],0.38%
same,"viability, T/C","second compound 3.16 µM, first compound 0.000316 µM",0.15%
same,"viability, T/C","second compound 3.16 µM, first compound 0.001 µM",0.17%
same,"viability, T/C","second compound 3.16 µM, first compound 0.00316 µM",0.15%
same,"viability, T/C","second compound 3.16 µM, first compound 0.01 µM",0.18%
same,"viability, T/C",[9],0.12%
same,"viability, T/C",[10],0.29%
same,"viability, T/C","second compound 10 µM, first compound 0.000316 µM",0.11%
same,"viability, T/C","second compound 10 µM, first compound 0.001 µM",0.2%
same,"viability, T/C","second compound 10 µM, first compound 0.00316 µM",0.16%
same,"viability, T/C","second compound 10 µM, first compound 0.01 µM",0.18%
same,"viability, T/C",[11],0.2%
same,"viability, T/C",[12],0.2%
Nc1ccn(C2OC(CO)C(O)C2(F)F)c(=O)n1 (stereo not drawn) + CN1CCN(c2cc(C(=O)Nc3cc4cc(-c5cnn(C)c5)ccc4cn3)ccn2)CC1,IC50,second compound 0.0316 µM,489 nM
same,IC50,second compound 0.1 µM,463 nM
same,IC50,second compound 0.316 µM,< 31.6 nM
same,IC50,second compound 1 µM,< 31.6 nM
same,IC50,second compound 3.16 µM,< 31.6 nM
same,IC50,second compound 10 µM,< 31.6 nM
same,"viability, T/C",[1],80.5%
same,"viability, T/C",[2],72.9%
same,"viability, T/C",[13],58.7%
same,"viability, T/C",[14],37.6%
same,"viability, T/C",[15],20.5%
same,"viability, T/C",[16],26.1%
same,"viability, T/C",[3],62.2%
same,"viability, T/C",[4],70.5%
same,"viability, T/C",[17],61.4%
same,"viability, T/C",[18],26.8%
same,"viability, T/C",[19],19.9%
same,"viability, T/C",[20],24.1%
same,"viability, T/C",[5],14.3%
same,"viability, T/C",[6],14.6%
same,"viability, T/C",[21],11.8%
same,"viability, T/C",[22],9.83%
same,"viability, T/C",[23],11.6%
same,"viability, T/C",[24],11.8%
same,"viability, T/C",[7],0.24%
same,"viability, T/C",[8],0.22%
same,"viability, T/C",[25],0.33%
same,"viability, T/C",[26],0.18%
same,"viability, T/C",[27],0.28%
same,"viability, T/C",[28],0.2%
same,"viability, T/C",[9],0.26%
same,"viability, T/C",[10],0.23%
same,"viability, T/C",[29],0.16%
same,"viability, T/C",[30],0.18%
same,"viability, T/C",[31],0.19%
same,"viability, T/C",[32],0.43%
same,"viability, T/C",[11],0.14%
same,"viability, T/C",[12],0.19%
same,"viability, T/C",[33],0.23%
same,"viability, T/C",[34],0.2%
same,"viability, T/C",[35],0.25%
same,"viability, T/C",[36],1.04%
O=C(c1cc(Cc2n[nH]c(=O)c3ccccc23)ccc1F)N1CCN(C(=O)C2CC2)CC1 + CN1CCN(c2cc(C(=O)Nc3cc4cc(-c5cnn(C)c5)ccc4cn3)ccn2)CC1,IC50,second compound 0.0316 µM,> 10000 nM
same,IC50,second compound 0.1 µM,> 10000 nM
same,IC50,second compound 0.316 µM,< 31.6 nM
same,IC50,second compound 1 µM,< 31.6 nM
same,IC50,second compound 3.16 µM,< 31.6 nM
same,IC50,second compound 10 µM,< 31.6 nM
same,"viability, T/C",[1],86.3%
same,"viability, T/C",[2],88%
same,"viability, T/C",[13],89.6%
same,"viability, T/C",[14],94.7%
same,"viability, T/C",[15],68.2%
same,"viability, T/C",[16],83.5%
same,"viability, T/C",[3],71.1%
same,"viability, T/C",[4],70.4%
same,"viability, T/C",[17],69.2%
same,"viability, T/C",[18],65.6%
same,"viability, T/C",[19],46.4%
same,"viability, T/C",[20],60.5%
same,"viability, T/C",[5],23.5%
same,"viability, T/C",[6],20.9%
same,"viability, T/C",[21],17.7%
same,"viability, T/C",[22],12.1%
same,"viability, T/C",[23],21.3%
same,"viability, T/C",[24],15.1%
same,"viability, T/C",[7],0.42%
same,"viability, T/C",[8],0.25%
same,"viability, T/C",[25],0.36%
same,"viability, T/C",[26],0.19%
same,"viability, T/C",[27],0.32%
same,"viability, T/C",[28],0.44%
same,"viability, T/C",[9],0.18%
same,"viability, T/C",[10],0.2%
same,"viability, T/C",[29],0.63%
same,"viability, T/C",[30],0.28%
same,"viability, T/C",[31],0.34%
same,"viability, T/C",[32],2.51%
same,"viability, T/C",[11],0.11%
same,"viability, T/C",[12],0.31%
same,"viability, T/C",[33],3.38%
same,"viability, T/C",[34],0.18%
same,"viability, T/C",[35],0.23%
same,"viability, T/C",[36],0.69%
